Assay results: US20260102501A1, “ANTI-CANCER NUCLEAR HORMONE RECEPTOR-TARGETING COMPOUNDS” (Nuvation Bio Inc., priority 2022, published 2026)
Positions count from the first letter of the chain named. Structures can show the parent of a compound that is named as a salt. Where two headings read alike, the source gives them in different places.

Tests used:
[1] = molecular target: T1, AR (cytosol from LnCaP cells) (Homo sapiens, UniProt P10275, T878A); assay: AR binding assay (3H-R1881 displacement)
T1 sequence (P10275 1-920 T878A): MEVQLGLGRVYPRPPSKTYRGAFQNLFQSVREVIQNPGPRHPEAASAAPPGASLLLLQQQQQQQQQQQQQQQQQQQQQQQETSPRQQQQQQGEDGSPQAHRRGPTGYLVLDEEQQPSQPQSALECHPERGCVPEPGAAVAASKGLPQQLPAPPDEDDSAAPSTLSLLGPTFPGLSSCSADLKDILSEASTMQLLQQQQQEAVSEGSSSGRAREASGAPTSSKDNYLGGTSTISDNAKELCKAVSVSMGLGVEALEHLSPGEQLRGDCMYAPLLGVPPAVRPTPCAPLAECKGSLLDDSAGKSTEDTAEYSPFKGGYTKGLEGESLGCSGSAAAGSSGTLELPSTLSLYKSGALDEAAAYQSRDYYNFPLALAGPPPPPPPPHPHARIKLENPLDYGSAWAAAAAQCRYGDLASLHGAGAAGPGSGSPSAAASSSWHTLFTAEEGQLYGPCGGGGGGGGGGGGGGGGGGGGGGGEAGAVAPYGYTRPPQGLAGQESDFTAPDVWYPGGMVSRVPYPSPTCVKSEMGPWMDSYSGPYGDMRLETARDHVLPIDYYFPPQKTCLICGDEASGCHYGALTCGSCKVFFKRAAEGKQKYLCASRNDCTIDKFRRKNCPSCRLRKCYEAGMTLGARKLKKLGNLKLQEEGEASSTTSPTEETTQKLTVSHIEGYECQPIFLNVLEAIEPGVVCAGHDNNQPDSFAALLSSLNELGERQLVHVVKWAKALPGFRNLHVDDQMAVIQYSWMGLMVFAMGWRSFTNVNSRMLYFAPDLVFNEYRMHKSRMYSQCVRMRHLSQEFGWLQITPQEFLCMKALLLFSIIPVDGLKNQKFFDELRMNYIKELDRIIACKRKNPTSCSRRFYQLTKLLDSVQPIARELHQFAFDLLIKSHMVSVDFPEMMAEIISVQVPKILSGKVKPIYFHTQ
Method: The plate was then centrifuged at 3000 rpm for 30 minutes at 4° C.

IEC6 cells = assay: Cell viability assay (CellTiterGlo); details: Rattus norvegicus, IEC-6, 144 h, read-out: IEC-6 (IC50, nM)
22Rv1 cells = assay: Cell viability assay (CellTiterGlo); details: Homo sapiens, 22Rv1, 144 h, read-out: 22RV1 (IC50, nM)
Method: Cell viability assay: LNCap, 22Rv1, MCF7, MDAMB361, T47D, and IEC6 cells were seeded at a density of 500-2000 cells/well in 96 well plates, and a ‘T0’ (timepoint 0) was included along with the assay plate. The plates were then incubated at 37° C., 5% CO2 in a cell culture incubator overnight. On the next day, the ‘T0’ plate was assayed using CellTiterGlo (Promega, Inc) according to the manufacturer's instructions. The appropriate compounds were diluted in DMSO and added to the assay plate (final DMSO concentration of 0.1-0.2%) on the next day. The assay plates were incubated for 6 days at 37° C., 5% CO2. After the incubation period, the plates were assayed using CellTiterGlo (Promega, Inc) according to the manufacturer's instructions and luminescence was read on the En Vision plate reader. […] GraphPadPrism was used to analyze the data and determine GI50/IC50 values.

LNCap cells = assay: Cell viability assay (CellTiterGlo); type: cell-based; details: Homo sapiens, 144 h
[2] = molecular target: T2, full-length androgen receptor (HEK293 cells stably expressing) (Homo sapiens, UniProt P10275); assay: AR antagonism assay (luciferase reporter)
T2 sequence (P10275 1-920): T1 sequence (P10275 1-920 T878A) with A878T
Method: AR antagonism assay: To evaluate AR antagonist activity, test compound was added to the assay plate (top dose 10 μM, 3 fold serial dilution, 10 point dose response). HEK293 cells stably expressing the full-length androgen receptor were seeded at a density of 20000 cells/well in the assay plate. The assay plate was then incubated at room temperature for 10 minutes and at 37° C. 5% CO2 for 20 minutes. Testosterone was added to the assay plate at 1 nM final concentration and the assay plate incubated at 37° C., 5% CO2 for 20 h. […] Steady-glo was added to the assay plate and mixed at room temperature for 20 minutes on an orbital shaker, before reading out on the En Vision plate reader.

[3] = 6 days incubation, CellTiterGlo, read-out: LNCap (IC50)

| Structure (SMILES) | IC50 [1] [nM] | IC50 (IEC6 cells) [nM] | IC50 (22Rv1 cells) [nM] | IC50 (LNCap cells; read-out: LNCap (IC50, nM)) [nM] | IC50 [2] [nM] | IC50 (LNCap cells; [3]) [nM] |
| --- | --- | --- | --- | --- | --- | --- |
| CC[C@@]1(O)C(=O)OCc2c1cc1n(c2=O)Cc2cc3c(CN4CCN(C(=O)C5CCN(c6ccc(C(=O)N[C@H]7CC[C@H](Oc8ccc(C#N)c(Cl)c8)CC7)nn6)CC5)CC4)c(OC(=O)N(C(C)C)C(C)C)ccc3nc2-1 [Compound 1, (S)-10-((4-(1-(6-(((1r,4r)-4-(3-Chloro-4-cyanophenoxy)cyclohexyl)carbamoyl)pyridazin-3-yl)piperidine-4-carbonyl)piperazin-1-yl)methyl)-4-ethyl-4-hydroxy-3,14-dioxo-3,4,12,14-tetrahydro-1H-pyrano[3′,4′:6,7]indolizino[1,2-b]quinolin-9-yl Diisopropylcarbamate] | 101 to 1000 | > 1000 | > 1000 | > 1000 | > 1000 | – |
| CC[C@@]1(O)C(=O)OCc2c1cc1n(c2=O)Cc2cc3c(CN(C)C)c(OC(=O)N4C[C@H](C)N(CC5CCN(c6ccc(C(=O)N[C@H]7CC[C@H](Oc8ccc(C#N)c(Cl)c8C)CC7)nn6)CC5)C[C@H]4C)ccc3nc2-1 [Compound 32, (S)-10-((Dimethylamino)methyl)-4-ethyl-4-hydroxy-3,14-dioxo-3,4,12,14-tetrahydro-1H-pyrano[3′,4′:6,7]indolizino[1,2-b]quinolin-9-yl (2R,5S)-4-((1-(6-(((1r,4r)-4-(3-Chloro-4-cyano-2-methylphenoxy)cyclohexyl)carbamoyl)pyridazin-3-yl)piperidin-4-yl)methyl)-2,5-dimethylpiperazine-1-carboxylate Formate] | 101 to 1000 | > 1000 | 101 to 1000 | 101 to 1000 | 101 to 1000 | – |
| CC[C@@]1(O)C(=O)OCc2c1cc1n(c2=O)Cc2cc3c(CN(C)C)c(OC(=O)N4C[C@H](C)N(CCCCCCN(C)C5CCN(c6ccc(C(=O)N[C@H]7CC[C@H](Oc8ccc(C#N)c(Cl)c8C)CC7)nn6)CC5)C[C@H]4C)ccc3nc2-1 [Compound 33, (S)-10-((Dimethylamino)methyl)-4-ethyl-4-hydroxy-3,14-dioxo-3,4,12,14-tetrahydro-1H-pyrano[3′,4′:6,7]indolizino[1,2-b]quinolin-9-yl (2R,5S)-4-(6-((1-(6-(((1r,4r)-4-(3-chloro-4-cyano-2-methylphenoxy)cyclohexyl)carbamoyl)pyridazin-3-yl)piperidin-4-yl)(methyl)amino)hexyl)-2,5-dimethylpiperazine-1-carboxylate Formate] | < 10 | > 1000 | 101 to 1000 | 10 to 100 | > 1000 | – |
| CC[C@@]1(O)C(=O)OCc2c1cc1n(c2=O)Cc2cc3c(CN4CCN(C(=O)CCCCCC5CCN(c6ccc(C(=O)N[C@H]7CC[C@H](N(C)c8ccc(C#N)c(Cl)c8)CC7)nn6)CC5)CC4)cccc3nc2-1 [Compound 43] | 10 to 100 | > 1000 | 101 to 1000 | – | > 1000 | 101 to 1000 |
| CC[C@@]1(O)C(=O)OCc2c1cc1n(c2=O)Cc2cc3c(CN4CCN(CCCCCCC5CCN(c6ccc(C(=O)N[C@H]7CC[C@H](Oc8ccc(C#N)c(Cl)c8C)CC7)nn6)CC5)CC4)cccc3nc2-1 [Compound 44, N-((1r,4r)-4-(3-chloro-4-cyano-2-methylphenoxy)cyclohexyl)-6-(4-(6-(4-(((S)-4-ethyl-4-hydroxy-3,14-dioxo-3,4,12,14-tetrahydro-1H-pyrano[3′,4′:6,7]indolizino[1,2-b]quinolin-10-yl)methyl)piperazin-1-yl)hexyl)piperidin-1-yl)pyridazine-3-carboxamide] | 10 to 100 | > 1000 | 101 to 1000 | – | > 1000 | 101 to 1000 |
| CC[C@@]1(O)C(=O)OCc2c1cc1n(c2=O)Cc2cc3c(CN(C)C)c(OC(=O)N4CCN(CCCCCCO[C@H]5CC[C@H]6[C@@H]7CCC8=CC(=O)CCC8=C7CC[C@]56C)CC4)ccc3nc2-1 [Compound 45, (S)-10-((dimethylamino)methyl)-4-ethyl-4-hydroxy-3,14-dioxo-3,4,12,14-tetrahydro-1H-pyrano[3′,4′:6,7]indolizino[1,2-b]quinolin-9-yl 4-(6-(((8S,13S,14S,17S)-13-methyl-3-oxo-2,3,6,7,8,11,12,13,14,15,16,17-dodecahydro-1H-cyclopenta[a]phenanthren-17-yl)oxy)hexyl)piperazine-1-carboxylate] | 10 to 100 | 101 to 1000 | 10 to 100 | 10 to 100 | 101 to 1000 | – |
| CC[C@@]1(O)C(=O)OCc2c1cc1n(c2=O)Cc2cc3c(CN(C)C)c(OC(=O)N4C[C@H](C)N(CC5CCN(c6ccc(C(=O)N[C@H]7CC[C@H](N(C)c8ccc(C#N)c(Cl)c8)CC7)nn6)CC5)C[C@H]4C)ccc3nc2-1 [Compound No. 20, (S)-10-((Dimethylamino)methyl)-4-ethyl-4-hydroxy-3,14-dioxo-3,4,12,14-tetrahydro-1H-pyrano[3′,4′:6,7]indolizino[1,2-b]quinolin-9-yl (2R,5S)-4-((1-(6-(((1r,4r)-4-((3-chloro-4-cyanophenyl)-(methyl)amino)cyclohexyl)carbamoyl)pyridazin-3-yl)piperidin-4-yl)methyl)-2,5-dimethylpiperazine-1-carboxylate] | 10 to 100 | > 1000 | 101 to 1000 | 101 to 1000 | > 1000 | – |
| CC[C@@]1(O)C(=O)OCc2c1cc1n(c2=O)Cc2c-1nc1cc(F)c(C)c3c1c2[C@@H](NC(=O)CN1CCN(C(=O)CCCCCC2CCN(c4ccc(C(=O)N[C@H]5CC[C@H](N(C)c6ccc(C#N)c(Cl)c6)CC5)nn4)CC2)CC1)CC3 [Compound No. 46] | 101 to 1000 | > 1000 | 101 to 1000 | – | > 1000 | 101 to 1000 |
| CC[C@@]1(O)C(=O)OCc2c1cc1n(c2=O)Cc2c-1nc1cc(F)c(C)c3c1c2[C@@H](NC(=O)CN1CCN(CCCCCCC2CCN(c4ccc(C(=O)N[C@H]5CC[C@H](Oc6ccc(C#N)c(Cl)c6C)CC5)nn4)CC2)CC1)CC3 [Compound No. 48, N-((1r,4r)-4-(3-chloro-4-cyano-2-methylphenoxy)cyclohexyl)-6-(4-(6-(4-(2-(((1S,9S)-9-ethyl-5-fluoro-9-hydroxy-4-methyl-10,13-dioxo-2,3,9,10,13,15-hexahydro-1H,12H-benzo[de]pyrano[3′,4′:6,7]indolizino[1,2-b]quinolin-1-yl)amino)-2-oxoethyl)piperazin-1-yl)hexyl)piperidin-1-yl)pyridazine-3-carboxamide] | 10 to 100 | > 1000 | 101 to 1000 | – | 101 to 1000 | 101 to 1000 |
| CC[C@@]1(O)C(=O)OCc2c1cc1n(c2=O)Cc2cc3c(CN4CCN(C(=O)CCCCCC5CCN(c6ccc(C(=O)N[C@H]7CC[C@H](N(C)c8ccc(C#N)c(Cl)c8)CC7)nn6)CC5)CC4)c(O)ccc3nc2-1 [Compound No. 49] | 10 to 100 | > 1000 | 10 to 100 | – | > 1000 | 10 to 100 |
